Consider 2 compounds from US20240270810A1, “PREPARATION AND APPLICATION OF POLYPEPTIDE” (GUANGDONG RAYNOVENT BIOTECH CO., LTD., priority 2021, published 2024).

In one data set the target is T1, GLP-1R (Homo sapiens, UniProt P43220).
T1 construct: host or cells: HEK293
Put plainly: In vitro GLP-1R agonistic activity test (cAMP kit). To be noted: HEK293 host cells. The format is cell-based. The procedure: The cell lines were constructed by Wuxi […] (Shanghai) Co., Ltd. See details in Table 1 below. [table] [table] The test compounds were diluted at a 4-fold dilution factor in 10 points, starting from an initial concentration of 30 μM. The dilution was carried out by Bravo. • 1) 100 nL of compounds were transferred to an OptiPlate-384 plate by Echo. • 2) The OptiPlate-384 plate was centrifuged at 1000 rpm for 5 s. • 1) A GLP-1R/GIPR cell cryovial was placed in warm water at 37° C. for rapid thawing. • 2) The cell suspension was transferred into a 15 mL Transfer centrifugal tube and rinsed with 10 mL of HBSS gently. • 3) The centrifugal tube was centrifuged at 1000 rpm at room temperature for 1 min. • 4) The supernatant was discarded. • 5) The bottom cells were gently dispersed, then gently rinsed with 10 mL of HBSS, the centrifugal tube was centrifuged to settle the cells, and finally the cells were resuspended in an experimental buffer. • 6) Cell density and viability were measured by Vi-cell. • 7) The GLP-1R/GIPR cells were diluted with the experimental buffer to a concentration of 2.0*10^5/mL. • 8) […] of the diluted cell suspension was transferred into the OptiPlate-384 plate. • 9) Incubation was performed at room temperature for 30 min. • 1) 10 μL of 800 nM gradient diluted cAMP standard was added into the empty wells of the OptiPlate-384 plate. • 2) 10 μL of cAMP assay reagent was added. • 3) The OptiPlate-384 plate was covered with TopSeal-A film and incubated at room temperature for 60 min. The TopSeal-A film was removed, and readout was performed on En Vision.

Data set [1] can be described thus: in vivo. The arrangement: species or system SD rats. The settings on record: rat, sc, 0.048 mg/kg; for Cmax: Sprague-Dawley. The procedure:
The pharmacokinetic characteristics in rodent animals following subcutaneous injection of the compounds were tested using standard protocols. In the experiment, the candidate compounds were formulated into clear solution, which was administered to rats by single subcutaneous injection (SC, 0.048 mpk). The vehicle for injection was citrate buffer solution (20 mM, pH=7). The whole blood was collected and processed to get the plasma. The drug concentration was analyzed by LC-MS/MS, and the pharmacokinetic parameters were calculated using Phoenix WinNonlin software.

A short description of data set [2]: in vivo. The settings on record: sc, 0.048 mg/kg. The arrangement: species or system C57BL/6 mice. The procedure: The pharmacokinetic characteristics in rodent animals following subcutaneous injection of the compounds were tested using standard protocols. In the experiment, the candidate compounds were formulated into clear solution, which was administered by subcutaneous injection (SC, 0.048 mpk). The vehicle for subcutaneous injection was citrate buffer solution (20 mM, pH=7). The whole blood was collected and processed to get the plasma. The drug concentration was analyzed by LC-MS/MS, and the pharmacokinetic parameters were calculated using Phoenix WinNonlin software.

Data set [3] is described as follows: in vivo. The arrangement: species or system Cynomolgus macaques. To be noted: cynomolgus monkey, sc, 0.02 mg/kg. The procedure:
The pharmacokinetic characteristics in mammals following intravenous injection and subcutaneous injection of the compounds were tested using standard protocols. In the experiment, the candidate compounds were formulated into clear solution, which was administered to Cynomolgus macaques by single subcutaneous injection (SC, 0.02 mpk). The vehicle for subcutaneous injection was citrate buffer solution (20 mM, pH=7). The whole blood was collected and processed to get the plasma. The drug concentration was analyzed by LC-MS/MS, and the pharmacokinetic parameters were calculated using Phoenix WinNonlin software.

Data set [4] is described as follows: in vitro. The format is in vitro ADME. To be noted: human, plasma. The procedure: (§1) • 1. Before the experiment, the clotted frozen plasma was thawed in a water bath at 37° C. The resulting plasma was centrifuged at 4000 rpm for 5 min. If there is blood clot, remove the clot and adjust the pH to 7.4±0.1. • 2. The test compound solution was prepared by diluting the compounds with DMSO to prepare a solution of 100 μM. • 3. 98 μL of plasma, as a blank control, was added with 2 μL of the test compound solution (100 μM) to get a mixed solution with a final concentration of 2 μM, which was incubated in a water bath at 37° C. • 4. 100 μL of H3PO4 solution and 800 μL of stop solution (a 100% solution of 200 ng/mL tolbutamide and 200 ng/ml labetalol in methanol) were respectively added at each time point (0, 10, 30, 60, and 120 min) to precipitate protein, which was then mixed thoroughly. • 5. The samples were centrifuged at 4000 rpm for 20 min, and 100 μL of supernatant was taken from each well for LC-MS/MS analysis.

The nature of data set [5]: in vitro. The format is in vitro ADME. The settings on record: mouse, plasma. The procedure:
as §1, with “To study the stability of the test compounds in the plasma of normal mice. • 1.” for “• 1.”

As usually defined, the EC50 is the concentration giving half of the maximal effect. Higher therefore signals a need for much substance. By Cmax is commonly meant the highest concentration seen after dosing. One may read the AUC(0-t) as the area under the concentration-time curve up to a stated or last time point. Read a high AUC(0-t) as high exposure. As a reminder, the Tmax is the time at which the peak concentration occurs. The half-life is how long it takes for the measured level to halve.

Molecules are shown by their SMILES.

T1 sequence (P43220 24-463, species assumed): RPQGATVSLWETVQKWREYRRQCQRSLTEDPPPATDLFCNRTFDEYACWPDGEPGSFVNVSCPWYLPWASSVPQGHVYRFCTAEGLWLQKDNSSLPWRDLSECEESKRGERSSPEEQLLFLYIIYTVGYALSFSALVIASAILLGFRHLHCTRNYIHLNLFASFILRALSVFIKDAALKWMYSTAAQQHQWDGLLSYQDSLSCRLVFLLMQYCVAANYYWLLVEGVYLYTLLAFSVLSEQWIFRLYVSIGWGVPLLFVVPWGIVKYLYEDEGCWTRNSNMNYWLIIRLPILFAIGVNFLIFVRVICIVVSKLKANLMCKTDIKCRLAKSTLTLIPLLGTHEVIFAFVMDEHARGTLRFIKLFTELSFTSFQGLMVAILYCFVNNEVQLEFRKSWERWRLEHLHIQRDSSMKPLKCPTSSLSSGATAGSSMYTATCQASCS

In the case of `CC[C@H](C)[C@H](NC(=O)[C@H](CC(C)C)NC(=O)[C@H](Cc1c[nH]c2ccccc12)NC(=O)[C@H](CCC(=O)O)NC(=O)[C@@H](NC(=O)[C@H](Cc1ccccc1)NC(=O)[C@H](C)NC(=O)[C@@H]1CCCCNC(=O)CN(C(=O)COCCOCCNC(=O)COCCOCCNC(=O)CC[C@H](NC(=O)CCCCCCCCCCCCCCCCCCC(=O)O)C(=O)O)CC(=O)NCCCC[C@H](NC(=O)[C@H](CCCCN)NC(=O)[C@H](CC(=O)O)NC(=O)[C@H](CC(C)C)NC(=O)C(C)(C)NC(=O)[C@@H](NC(=O)[C@H](CO)NC(=O)[C@H](Cc2ccc(O)cc2)NC(=O)[C@H](CC(=O)O)NC(=O)[C@H](CO)NC(=O)[C@@H](NC(=O)[C@H](Cc2ccccc2)NC(=O)[C@@H](NC(=O)CNC(=O)[C@H](CCC(=O)O)NC(=O)C(C)(C)NC(=O)[C@@H](N)Cc2ccc(O)cc2)[C@@H](C)O)[C@@H](C)O)[C@@H](C)CC)C(=O)N[C@@H](C)C(=O)N[C@@H](CCC(N)=O)C(=O)N1)C(C)C)C(=O)N[C@@H](C)C(=O)NCC(=O)NCC(=O)N1CCC[C@H]1C(=O)N[C@@H](CO)C(=O)N[C@@H](CO)C(=O)NCC(=O)N[C@@H](C)C(=O)N1CCC[C@H]1C(=O)N1CCC[C@H]1C(=O)N1CCC[C@H]1C(=O)N[C@@H](CO)C(N)=O` [WX-005], the EC50 at GLP-1R (with 1% HSA) was 7.63 nM; at GLP-1R (without 1% HSA) it was 0.036 nM. The Cmax in the data set “in vivo [1]” came to 0.028 µM; in “in vivo [2]” (C57BL/6, mouse), 0.079 µM; in “in vivo [3]”, 0.036 µM. Further, the results for the AUC(0-t) in the data set “in vivo [1]”, in “in vivo [2]” (mouse) and in “in vivo [3]” were 1150 nM·h, 2240 nM·h and 4470 nM·h, respectively. Moreover, the Tmax in “in vivo [1]” amounted to 16 h; in “in vivo [2]” (mouse), 12 h; in “in vivo [3]” it was 24 h. The half-life is 21 h in the data set “in vivo [1]”; 16 h in the data set “in vivo [2]” (mouse); 100 h in the data set “in vivo [3]”; over 4.82 h in “in vitro [4]”; over 4.82 h in the data set “in vitro [5]”.
For the compound `CC[C@H](C)[C@H](NC(=O)[C@H](CC(C)C)NC(=O)[C@H](Cc1c[nH]c2ccccc12)NC(=O)[C@H](CCC(=O)O)NC(=O)[C@@H](NC(=O)[C@H](Cc1ccccc1)NC(=O)[C@H](CCC(=O)O)NC(=O)[C@@H]1CCCCNC(=O)CN(C(=O)COCCOCCNC(=O)COCCOCCNC(=O)CC[C@H](NC(=O)CCCCCCCCCCCCCCCCCCC(=O)O)C(=O)O)CC(=O)NCCCC[C@H](NC(=O)[C@H](CCCCN)NC(=O)[C@H](CC(=O)O)NC(=O)[C@H](CC(C)C)NC(=O)C(C)(C)NC(=O)[C@@H](NC(=O)[C@H](CO)NC(=O)[C@H](Cc2ccc(O)cc2)NC(=O)[C@H](CC(=O)O)NC(=O)[C@H](CO)NC(=O)[C@@H](NC(=O)[C@H](Cc2ccccc2)NC(=O)[C@@H](NC(=O)CNC(=O)[C@H](CCC(=O)O)NC(=O)C(C)(C)NC(=O)[C@@H](N)Cc2ccc(O)cc2)[C@@H](C)O)[C@@H](C)O)[C@@H](C)CC)C(=O)N[C@@H](C)C(=O)N[C@@H](CCC(N)=O)C(=O)N1)C(C)C)C(=O)N[C@@H](C)C(=O)NCC(=O)NCC(=O)N1CCC[C@H]1C(=O)N[C@@H](CO)C(=O)N[C@@H](CO)C(=O)NCC(=O)N[C@@H](C)C(=O)N1CCC[C@H]1C(=O)N1CCC[C@H]1C(=O)N1CCC[C@H]1C(=O)N[C@@H](CO)C(N)=O` [WX-009], the midpoint of the response on GLP-1R (without 1% HSA), the EC50, lay at 0.014 nM. Further, the Tmax in “in vivo [1]” (SD) is 20 h; in the data set “in vivo [2]” (C57BL/6, mouse), 12 h; in the data set “in vivo [3]” it was 24 h. For the same compound, the highest concentration (Cmax) in “in vivo [1]” worked out at 0.024 µM; in the data set “in vivo [2]” (C57BL/6, mouse), 0.059 µM; in “in vivo [3]”, 0.037 µM. The results for the half-life at 2 μM in the data set “in vitro [4]” (pH 7.4) and in the data set “in vitro [5]” (pH 7.4) were over 4.82 h and over 3.98 h, respectively.
